Consider `*=Nc1ccc(/N=C(/C=C/C(=*)c2ccccc2)c2ccccc2)cc1` (repeat unit), for which the glass transition temperature was 157.00 °C.
Regarding `*C(=O)c1ccc2c(c1)/C(=N\c1ccc(Oc3ccc(C(c4ccc(Oc5ccc(/N=C6/OC(=O)c7ccc(*)cc76)cc5)cc4)(C(F)(F)F)C(F)(F)F)cc3)cc1)OC2=O` (repeat unit), the glass transition temperature came to 248.00 °C.
Turning to `*CC(*)(C)c1ccc(C)cc1` (repeat unit), the glass transition temperature stood at 176.00 °C.
The compound `*CC(*)(C)c1ccc2ccccc2n1` (repeat unit) registered a glass transition temperature of 193.00 °C.
As to `*CC(*)(C)c1nc(N(CCOCCOCCOC)CCOCCOCCOC)nc(N(CCOCCOCCOC)c2ccccc2)n1` (repeat unit), the glass transition temperature was -75.00 °C.
`*CC(*)(CC(=O)OC)C(=O)O` (repeat unit) displayed a glass transition temperature of 159.00 °C.
`*CC(*)(CC(=O)OC1CCCCC1)C(=O)OC1CCCCC1` (repeat unit) displayed a glass transition temperature of 142.00 °C.
In turn, `*CC(*)(CC(=O)OC1CCCCCC1)C(=O)OC1CCCCCC1` (repeat unit) displayed a glass transition temperature of 105.00 °C.
Take `*CC(*)(CC(=O)OCC)C(=O)OCC` (repeat unit): the glass transition temperature was 65.50 °C.
`*CC(*)(CC(=O)OCCCCC)C(=O)OCCCCC` (repeat unit) yielded a glass transition temperature of 2.00 °C.
With `*CC(*)(CC(=O)OCCCCCCCC)C(=O)OCCCCCCCC` (repeat unit), the glass transition temperature was -19.00 °C.
The compound `*CC(*)(CC(=O)OCCCCl)C(=O)OCCCCl` (repeat unit) yielded a glass transition temperature of 47.00 °C.
In the case of `*CC(*)(CC(=O)OCCOCCOCCOCCOCCOCCOCCOC)C(=O)OCCOCCOCCOCCOCCOCCOCCOC` (repeat unit), the glass transition temperature was -40.50 °C.
With `*CC(*)(CC(=O)Oc1ccc(OCC)cc1)C(=O)Oc1ccc(OCC)cc1` (repeat unit), the glass transition temperature is 110.50 °C.
Then `*CC(*)(CC(=O)Oc1ccc(OCCCCC)cc1)C(=O)Oc1ccc(OCCCCC)cc1` (repeat unit), with 73.50 °C; and `*CC(*)(CC(=O)Oc1ccc(OCCCCCCC)cc1)C(=O)Oc1ccc(OCCCCCCC)cc1` (repeat unit), with 111.00 °C; and `*CC(*)(CC(=O)Oc1ccccc1)C(=O)Oc1ccccc1` (repeat unit), with 132.00 °C.
In the case of `*CC(*)(CCC(C)C(=O)OC)C(=O)OC` (repeat unit), the glass transition temperature is 34.00 °C.
The compound `*CC(*)(CCCCC)C(=O)OC` (repeat unit) had a glass transition temperature of 53.00 °C.
The compound `*CC(*)(Cl)C(=O)OC` (repeat unit) had a glass transition temperature of 125.00 °C.
In turn, `*CC(*)(Cl)C(=O)OCCOc1ccc(C(=O)Oc2ccc(OCCCC)cc2)cc1` (repeat unit) registered a glass transition temperature of 153.00 °C.
The same measure for `*CC(*)(F)C(=O)OC` (repeat unit): 142.00 °C; for `*CC(*)(F)C(=O)OCC(F)(F)C(F)(F)C(F)(F)C(F)F` (repeat unit): 60.00 °C; for `*CC(*)(F)C(=O)OCC(F)(F)C(F)F` (repeat unit): 90.50 °C.
The same measure for `*Oc1ccc(/N=C(\C)c2ccc(Oc3ccc(C(c4ccccc4)(c4ccccc4)c4ccc(Oc5ccc(/C(C)=N/c6ccc(*)cc6)cc5)cc4)cc3)cc2)cc1` (repeat unit): 150.00 °C; for `*Oc1ccc(/N=C(\c2ccccc2)c2ccc(Oc3ccc(C(c4ccccc4)(c4ccccc4)c4ccc(Oc5ccc(/C(=N/c6ccc(*)cc6)c6ccccc6)cc5)cc4)cc3)cc2)cc1` (repeat unit): 177.00 °C.
The same measure for `*Oc1ccc2ccc(Oc3ccc(/C(=N/c4ccc(Oc5ccc(/N=C(\c6ccccc6)c6ccc(*)cc6)cc5)cc4)c4ccccc4)cc3)cc2c1` (repeat unit): 165.00 °C.
